Columns and labels:
melanocortin-4 receptor [1] = molecular target: T1, melanocortin-4 receptor (Homo sapiens, UniProt P32245); assay: Membrane binding assay (fluorescence polarization, competition with fluorescence labeled NDP-alpha-MSH); conditions: read-out: hMC-4R binding assay IC50/μM
T1 construct: expressed in transfected cells; host or cells: HEK293 cells (membrane preparations)

melanocortin-4 receptor [2] = molecular target: T1, melanocortin-4 receptor; assay: Functional assay (cAMP fluorescence polarization, membrane based, agonistic activity); assay type: biochemical; conditions: 2 h; read-out: % activation functional assay

T1 sequence (P32245 whole entry): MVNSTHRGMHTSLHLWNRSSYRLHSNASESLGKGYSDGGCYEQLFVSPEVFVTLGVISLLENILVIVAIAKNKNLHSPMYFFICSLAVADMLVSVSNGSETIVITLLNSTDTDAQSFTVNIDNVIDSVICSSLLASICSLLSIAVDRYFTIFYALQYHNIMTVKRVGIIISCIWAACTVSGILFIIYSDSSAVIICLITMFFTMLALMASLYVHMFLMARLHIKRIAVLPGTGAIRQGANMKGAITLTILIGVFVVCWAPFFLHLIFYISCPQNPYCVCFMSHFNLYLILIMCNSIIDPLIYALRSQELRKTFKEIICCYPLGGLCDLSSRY

| Compound | IC50 (melanocortin-4 receptor [1]) | Emax (melanocortin-4 receptor [2]) |
| --- | --- | --- |
| CC(C)CCN(CCC(C)C)C(=O)c1ccc2nc(-c3ccc(C(F)(F)F)cc3)c(CN3CCC(N)CC3)n2c1 [Example 134] | 0.1 to 1 µM | 0% |
| CC(C)CCN(CCC(C)C)C(=O)c1ccc2nc(-c3nccs3)c(CN3CCC(N)CC3)n2c1 [Example 135] | > 1 µM | 0% |
| CC(C)CCN(CCC(C)C)C(=O)c1ccc2nc(-c3ccc4c(c3)CCC(=O)N4)c(CN3CCC(N)CC3)n2c1 [Example 136] | 0.1 to 1 µM | 0% |
| CC(C)CCN(CCC(C)C)C(=O)c1ccc2nc(-c3ccc4c(c3)NC(=O)CO4)c(CN3CCC(N)CC3)n2c1 [Example 137] | 0.1 to 1 µM | 0% |
| CC(C)CCN(CCC(C)C)C(=O)c1ccc2nc(-c3ccc(C#N)cc3)c(CN3CCC(N)CC3)n2c1 [Example 138] | 0.1 to 1 µM | 0% |
| COc1ccc(-c2nc3ccc(C(=O)N(CCC(C)C)CCC(C)C)cn3c2CN2CCC(N)CC2)cc1OC [Example 139] | 0.1 to 1 µM | 0% |
| COc1ccc(-c2nc3ccc(C(=O)N(CCC(C)C)CCC(C)C)cn3c2CN2CCC(N)CC2)cc1 [Example 140] | 0.1 to 1 µM | 0% |
| CCCN(CC1CC1)C(=O)c1ccc2nc(-c3ccc(C#N)cc3)c(CCCN3CCCC3)n2c1 [Example 141] | 0.1 to 1 µM | 0% |
| CCCCN(CCCC)C(=O)c1ccc2nc(-c3ccc(C#N)cc3)c(CCCN3CCCC3)n2c1 [Example 142] | < 0.1 µM | 0% |
| CC(C)CCN(CCC1CC1)C(=O)c1ccc2nc(-c3ccc(C#N)cc3)c(CCCN3CCCC3)n2c1 [Example 143] | < 0.1 µM | 0% |
| CC(C)CN(CC(C)C)C(=O)c1ccc2nc(-c3ccc(C#N)cc3)c(CCCN3CCCC3)n2c1 [Example 144] | 0.1 to 1 µM | 0% |
| N#Cc1ccc(-c2nc3ccc(C(=O)N(CCC4CC4)CCC4CC4)cn3c2CCCN2CCCC2)cc1 [Example 145] | < 0.1 µM | 0% |
| CC(C)CC1CCCN1C(=O)c1ccc2nc(-c3ccc(C#N)cc3)c(CCCN3CCCC3)n2c1 (stereo not shown) [Example 146] | 0.1 to 1 µM | 0% |
| CCCC1CCCN1C(=O)c1ccc2nc(-c3ccc(C#N)cc3)c(CCCN3CCCC3)n2c1 (stereo not shown) [Example 147] | > 1 µM | 0% |
| O=C(c1ccc2nc(-c3ccc(=O)[nH]c3)c(CCCN3CCCC3)n2c1)N(CCC1CC1)CCC1CC1 [Example 148] | 0.1 to 1 µM | -12% |
| CC(C)CCN(CCC(C)CO)C(=O)c1ccc2nc(-c3ccc(=O)[nH]c3)c(CCCN3CCCC3)n2c1 (stereo not shown) [Example 149] | 0.1 to 1 µM | 0% |
| CC(C)CCN(CC(C)C)C(=O)c1ccc2nc(-c3ccc(C#N)cc3)c(CN3CCC(N)CC3)n2c1 [Example 150] | 0.1 to 1 µM | 0% |

Source: US8236818B2, “Substituted imidazopyridine derivatives as melanocortin-4 receptor antagonists” (Santhera Pharmaceuticals (Schweiz) AG, priority 2007, dated 2012)
